These are literature values, as cited in patent US20060110454A1 (priority 2004, published 2006).

Counter-ions that a name gives are not always drawn.

As to `CCCN[C@H]1CCc2nc(N)sc2C1` [Pramipexole dihydrochloride, (S)-2-amino-4,5,6,7-tetrahydro-6-(propylamino)benzothiazole dihydrochloride monohydrate], the soluble in ethanol entry (ethanol) was “about 0.5%”. Also, the soluble in methanol entry (methanol) was “about 8%”. Also, the soluble in water entry (water) is listed as “more than 20%”.
